12 molecules from patent US8987195B2 (priority 2012, dated 2015) can be followed below.

Read-outs that look alike come from different tables or passages of the source.

The subject of one assay is HCV genotype 1b replicon. Description: HCV replicon assay, genotype 1b replicon EC50. Type of assay: cell-based, Hepatitis C virus. As to conditions: read-out: EC50 [gt-1b]. In a few lines: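 Stable neomycin-selected genotype 1b replicon cells, some carrying luciferase:Neo^r fusion, plated without G418 with a compound dilution series and incubated 24-48 h. Read-out was RNA (^32P-probe protection or TaqMan, normalized to cyclophilin A) or luciferase activity. EC50 from four-parameter fit as percent of DMSO control.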
A general note: Replicon systems follow genome replication, usually without infectious particles.

Assay [1] deals with HCV NS3/4A protease genotype 1b (Hepatitis C virus genotype 1b, UniProt P26663). Description: HCV NS3/4A protease time-resolved fluorescence (TRF) assay, Ki against genotype 1b. Type of assay: biochemical. A digest of the protocol:
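First, protease (genotype 1b 0.2 nM, A156T 0.4 nM, genotype 3a 0.025 nM) is preincubated 30 min with inhibitor. Next, 25 nM TRF substrate starts the reaction, run 2.5 h at room temperature. Finally, europium fluorescence is read and Ki calculated from IC50.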

Where [2] appears, read: IC50 [gt-1b] (nM), NS3/4A genotype 1b, enzyme 0.2 nM.
Where [3] appears, read: Hepatitis C virus, genotype 1b replicon, HCOOH salt.
The mark [4] stands for this setting: IC50 [gt-1b] (nM), NS3/4A genotype 1b, enzyme 0.2 nM, HCOOH salt.
[5] abbreviates: Hepatitis C virus, HCV replicon, genotype 1b.
The mark [6] stands for this setting: IC50 [gt-1b], NS3/4A protease TRF assay, genotype 1b enzyme 0.2 nM.
Setting [7] is: Hepatitis C virus, genotype 1b replicon.
[8] abbreviates: Hepatitis C virus, genotype 1b replicon, K+ salt.
Where [9] appears, read: IC50 [gt-1b] (nM), NS3/4A genotype 1b, enzyme 0.2 nM, K+ salt.

By EC50 is commonly meant the concentration needed to bring the measured effect to its halfway point. By IC50 is commonly meant the concentration at which inhibition is half-maximal. As to `Cc1nc2ccccc2c2c1O[C@]1(CC2O)C[C@H]2C(=O)N[C@]3(C(=O)NS(=O)(=O)C4(C)CC4)C[C@H]3/C=C\CCCCC[C@H](NC(=O)OC(C)(C)C)C(=O)N2C1` (stereo partly drawn) [Example 118, tert-butyl [(2S,6S,12Z,13aS,14aR,16aS)-1′-hydroxy-5′-methyl-14a-{[(1-methylcyclopropyl)sulfonyl]carbamoyl}-5,16-dioxo-1,1′,2′,5,6,7,8,9,10,11,13a,14,14a,15,16,16a-hexadecahydrospiro[cyclopropa[e]pyrrolo[1,2-a][1,4]diazacyclopentadecine-2,3′-pyrano[2,3-c]quinolin]-6-yl]carbamate], the EC50 in the assay with HCV genotype 1b replicon (genotype 1b replicon) came out at 47.3 nM. In assay [1] (setting [2]), half-maximal inhibition (IC50) was put at 0.027 nM.
On to `CCCOC(=O)N[C@H]1CCCCC/C=C\[C@@H]2C[C@@]2(C(=O)NS(=O)(=O)C2(C)CC2)NC(=O)[C@@H]2C[C@]3(CCc4c(c(C5CC5)nc5cc(OC)ccc45)O3)CN2C1=O` [Example 271, propyl [(2R,6S,12Z,13aS,14aR,16aS)-5′-cyclopropyl-8′-methoxy-14a-{[(1-methylcyclopropyl)sulfonyl]carbamoyl}-5,16-dioxo-1,1′,2′,5,6,7,8,9,10,11,13a,14,14a,15,16,16a-hexadecahydrospiro[cyclopropa[e]pyrrolo[1,2-a][1,4]diazacyclopentadecine-2,3′-pyrano[2,3-c]quinolin]-6-yl]carbamate], for which the EC50 in the assay with HCV genotype 1b replicon (setting [3]) amounted to 5.9 nM. Besides, in assay [1] (setting [4]), the IC50 was determined as 0.031 nM.
On to `CC[C@H](C)OC(=O)N[C@H]1CCCCC/C=C\[C@@H]2C[C@@]2(C(=O)NS(=O)(=O)C2(C)CC2)NC(=O)[C@@H]2C[C@]3(CCc4c(c(C(F)F)nc5ccc(OC)nc45)O3)CN2C1=O` [Example 525, (2S)-butan-2-yl [(2R,6S,12Z,13aS,14aR,16aS)-6′-(difluoromethyl)-2′-methoxy-14a-{[(1-methylcyclopropyl)sulfonyl]carbamoyl}-5,16-dioxo-1,5,6,7,8,9,9′,10,10′,11,13a,14,14a,15,16,16a-hexadecahydrospiro[cyclopropa[e]pyrrolo[1,2-a][1,4]diazacyclopentadecine-2,8′-pyrano[2,3-c][1,5]naphthyridin]-6-yl]carbamate], for which, in the assay with HCV genotype 1b replicon (setting [5]), the EC50 was 1.16 nM. In assay [1] (setting [6]), the IC50 came out at 0.004 nM.
For `COc1ccnc(N[C@H]2CCCCC/C=C\[C@@H]3C[C@@]3(C(=O)NS(=O)(=O)C3(C)CC3)NC(=O)[C@@H]3C[C@]4(CCc5c(c(C)nc6ccc(OC)cc56)O4)CN3C2=O)c1` [Example 432, (2R,6S,12Z,13aS,14aR,16aS)-9′-methoxy-6-[(4-methoxypyridin-2-yl)amino]-5′-methyl-N-[(1-methylcyclopropyl)sulfonyl]-5,16-dioxo-1,1′,2′,6,7,8,9,10,11,13a,14,15,16,16a-tetradecahydrospiro[cyclopropa[e]pyrrolo[1,2-a][1,4]diazacyclopentadecine-2,3′-pyrano[2,3-c]quinoline]-14a(5H)-carboxamide], in that order: 7.5 nM and 0.091 nM.
Regarding `Cc1nc2ccccc2c2c1O[C@]1(CC2)C[C@H]2C(=O)N[C@]3(C(=O)NS(=O)(=O)C4(C)CC4)C[C@H]3/C=C\CCCCC[C@H](NC(=O)NC3CCCCC3)C(=O)N2C1` [Example 285, (2R,6S,12Z,13aS,14aR,16aS)-6-[(cyclohexylcarbamoyl)amino]-5′-methyl-N-[(1-methylcyclopropyl)sulfonyl]-5,16-dioxo-1,1′,2′,6,7,8,9,10,11,13a,14,15,16,16a-tetradecahydrospiro[cyclopropa[e]pyrrolo[1,2-a][1,4]diazacyclopentadecine-2,3′-pyrano[2,3-c]quinoline]-14a(5H)-carboxamide], in the assay on HCV genotype 1b replicon (setting [3]), the EC50 was 10.3 nM. In addition, the IC50 in assay [1] (setting [4]) amounted to 0.002 nM.
Regarding `COc1ccc2nc(C)c3c(c2n1)CC[C@]1(C[C@H]2C(=O)N[C@]4(C(=O)NS(=O)(=O)C5(C)CC5)C[C@H]4/C=C\CCCCC[C@H](NC(=O)OC4CCCC4)C(=O)N2C1)O3` [Example 363, cyclopentyl [(2R,6S,12Z,13aS,14aR,16aS)-2′-methoxy-6′-methyl-14a-{[(1-methylcyclopropyl)sulfonyl]carbamoyl}-5,16-dioxo-1,5,6,7,8,9,9′,10,10′,11,13a,14,14a,15,16,16a-hexadecahydrospiro[cyclopropa[e]pyrrolo[1,2-a][1,4]diazacyclopentadecine-2,8′-pyrano[2,3-c][1,5]naphthyridin]-6-yl]carbamate], the EC50 with HCV genotype 1b replicon (setting [5]) turned out to be 8.16 nM. This molecule also gave an IC50 in assay [1] (setting [6]) of 0.011 nM.
For `COCC1(S(=O)(=O)NC(=O)[C@@]23C[C@H]2/C=C\CCCCC[C@H](NC(=O)O[C@@H](C)C(C)C)C(=O)N2C[C@@]4(CCc5c(c(C(F)F)nc6ccc(OC)cc56)O4)C[C@H]2C(=O)N3)CC1` [Example 478, (2S)-3-methylbutan-2-yl [(2R,6S,12Z,13aS,14aR,16aS)-5′-(difluoromethyl)-9′-methoxy-14a-({[1-(methoxymethyl)cyclopropyl]sulfonyl}carbamoyl)-5,16-dioxo-1,1′,2′,5,6,7,8,9,10,11,13a,14,14a,15,16,16a-hexadecahydrospiro[cyclopropa[e]pyrrolo[1,2-a][1,4]diazacyclopentadecine-2,3′-pyrano[2,3-c]quinolin]-6-yl]carbamate], in that order: 5.8 nM and 0.016 nM.
`Cc1nc2c(C(F)(F)F)cccc2c2c1O[C@]1(CC2)C[C@H]2C(=O)N[C@]3(C(=O)NS(=O)(=O)C4(C)CC4)C[C@H]3/C=C\CCCCC[C@H](NC(=O)OC(C)C)C(=O)N2C1` [Example 114, propan-2-yl [(2R,6S,12Z,13aS,14aR,16aS)-5′-methyl-14a-{[(1-methylcyclopropyl)sulfonyl]carbamoyl}-5,16-dioxo-7′-(trifluoromethyl)-1,1′,2′,5,6,7,8,9,10,11,13a,14,14a,15,16,16a-hexadecahydrospiro[cyclopropa[e]pyrrolo[1,2-a][1,4]diazacyclopentadecine-2,3′-pyrano[2,3-c]quinolin]-6-yl]carbamate]: in the assay on HCV genotype 1b replicon (setting [7]), the 50% effective concentration (EC50) turned out to be 3.53 nM. The same molecule displayed an IC50 in assay [1] (setting [2]) of 0.308 nM.
As for `Cc1nc2cc(F)ccc2c2c1O[C@]1(CC2)C[C@H]2C(=O)N[C@]3(C(=O)NS(=O)(=O)C4(C)CC4)C[C@H]3/C=C\CCCCC[C@H](NC(=O)OC(C)(C)C)C(=O)N2C1` [Example 71, tert-butyl [(2R,6S,12Z,13aS,14aR,16aS)-8′-fluoro-5′-methyl-14a-{[(1-methylcyclopropyl)sulfonyl]carbamoyl}-5,16-dioxo-1,1′,2′,5,6,7,8,9,10,11,13a,14,14a,15,16,16a-hexadecahydrospiro[cyclopropa[e]pyrrolo[1,2-a][1,4]diazacyclopentadecine-2,3′-pyrano[2,3-c]quinolin]-6-yl]carbamate], the EC50 in the assay on HCV genotype 1b replicon (setting [8]) worked out at 0.628 nM. Further, the IC50 in assay [1] (setting [9]) turned out to be 0.023 nM.
With `Cc1nc2cc(F)ccc2c2c1O[C@]1(CC2)C[C@H]2C(=O)N[C@]3(C(=O)NS(=O)(=O)C4(C)CC4)C[C@H]3/C=C\CCCCC[C@H](NC(=O)OC(C)(C)C(F)(F)F)C(=O)N2C1` [Example 328, 1,1,1-trifluoro-2-methylpropan-2-yl [(2R, 6S,12Z,13aS,14aR,16aS)-8′-fluoro-5′-methyl-14a-{[(1-methylcyclopropyl)sulfonyl]carbamoyl}-5,16-dioxo-1,1′,2′,5,6,7,8,9,10,11,13a,14,14a,15,16,16a-hexadecahydrospiro[cyclopropa[e]pyrrolo[1,2-a][1,4]diazacyclopentadecine-2,3′-pyrano[2,3-c]quinolin]-6-yl]carbamate], the EC50 with HCV genotype 1b replicon (setting [8]) is 47 nM. Moreover, the IC50 in assay [1] (setting [9]) was 0.348 nM.
For `Cc1nc2ccc(F)cc2c2c1O[C@]1(CC2)C[C@H]2C(=O)N[C@]3(C(=O)NS(=O)(=O)C4(C)CC4)C[C@H]3/C=C\CCCCC[C@H](NC(=O)OC(C)(C)C)C(=O)N2C1` [Example 43, tert-Butyl (1aR,3aS,3′R,9S,16aS,Z)-9′-fluoro-5′-methyl-1a-(1-methylcyclopropylsulfonylcarbamoyl)-3,8-dioxo-1a,1′,2,2′,3,3a,4,6,8,9,10,11,12,13,14,16a-hexadecahydro-1H-spiro[cyclopropa[e]pyrrolo[1,2-a][1,4]diazacyclopentadecine-5,3′-pyrano[2,3-c]quinoline]-9-ylcarbamate], the EC50 in the assay with HCV genotype 1b replicon (setting [7]) worked out at 1.25 nM. This molecule showed an IC50 in assay [1] (setting [2]) of 0.005 nM.
For `COCCC(C)(C)OC(=O)N[C@H]1CCCCC/C=C\[C@@H]2C[C@@]2(C(=O)NS(=O)(=O)C2(C)CC2)NC(=O)[C@@H]2C[C@@]3(CN2C1=O)CC(F)(F)c1c(c(C(C)C)nc2ccc(OC)cc12)O3` [Example 244, 4-methoxy-2-methylbutan-2-yl [(2S,6S,12Z,13aS,14aR,16aS)-1′,1′-difluoro-9′-methoxy-14a-{[(1-methylcyclopropyl)sulfonyl]carbamoyl}-5,16-dioxo-5′-(propan-2-yl)-1,1′,2′,5,6,7,8,9,10,11,13a,14,14a,15,16,16a-hexadecahydrospiro[cyclopropa[e]pyrrolo[1,2-a][1,4]diazacyclopentadecine-2,3′-pyrano[2,3-c]quinolin]-6-yl]carbamate], in that order: 2.89 nM and 0.008 nM.
